Results published in patent publication US20190070170A1, “METHOD OF S[…]-1” (Macau University of Science and Technology, priority 2017, published 2019).

Legend:
mPGES-1 = mPGES-1 protein expression in IL-1β-stimulated A549 cells (western blotting); format: cell-based; details: IL-1β with SIN or DEX for 48 h
Experimental: RAW264.7 and A549 cell lines were obtained from American Type Culture Collection (ATCC, Manassas, Va., USA) and maintained in DMEM (RAW264.7) or 1640 (A549) medium containing 10% FBS (Gibco-BRL, Grand Island, N.Y., USA) and antibiotics at 37° C. in a humidified atmosphere containing 5% CO2. RAW264.7 cells were plated in 6-well plates at a density of 4×10^5 cells and incubated for 24 h, then the cells were pretreated with different concentrations of SIN for 1 h before stimulating with LPS (100 ng/ml). A549 cells were seeded in 6-well plates at a density of 1×10^5 cells and incubated for 24 h, followed by pretreatment with SIN. A549 cells were then stimulated by IL-1β (1 ng/ml).
Whole-cell and nuclear proteins were obtained using RIPA lysis buffer (CST, Boston, Mass., USA) and Nuclear and Cytoplasmic Extraction Reagents kit from Thermo Scientific (Asheville, N.C., USA), respectively. For immunoblotting, proteins from whole-cell, cytoplasm, nuclear, and microsomal fractions were separated on SDS-PAGE, then transferred onto a nitrocellulose membrane from GE Healthcare Life Sciences (Buckinghamshire, UK), and incubated with 5% skimmed milk at room temperature for 1 h. […] The levels of protein expression were measured using Odyssey v3.0 software from Li-COR (Lincoln, Nebr., USA).

[1] = tested on: carrageenan-induced paw edema; assay: Carrageenan-induced rat paw edema model; format: in vivo, SD rats; details: SIN 25, 50 and 100 mg/kg i.p. 2 h before carrageenan
Experimental: The model of carrageenan-induced paw edema was performed with SD rats (150-200 g). […] Briefly, rats were fasted for 12 h before experiment and intraperitoneal injection was performed with three different doses (25, 50 and 100 mg/kg) of SIN, or DEX (reference drug, 2 mg/kg) or 0.9% saline (Vehicle and Normal group rats), at 2 h prior to the induction of paw edema. Paw edema was induced by subcutaneous injection of 100 μl of 1% (w/v) freshly prepared λ-carrageenan (Sigma, St Louis, Mo., USA) diluted in saline in the right hind foot pad. 100 μl sterile saline was injected to the rats in the right hind paw as normal control. Paw volumes (ml) of right hind foot of each rat were measured using a plethysmometer (type 7150; UGO Basile, Comerio, Italy) at 0 h (before carrageenan injection) and then again at 1, 2, 3 and 4 h after the injection of carrageenan or saline. The percentage of paw edema of the right hind paws of all groups were calculated at different time points by the following equation: Swelling ratio in each time points=(the paw volume after injection−the paw volume before injection)/the paw volume before injection×100

PGD2 = PGD2 level in culture supernatants of LPS-activated rat peritoneal macrophages (ELISA); format: cell-based; details: LPS-stimulated rat peritoneal macrophages, culture supernatant
Experimental: Sprague-Dawley (SD) rats from the University of Hong Kong were housed in cages with free access to food and water. Peritoneal macrophages of SD rats were isolated as described in Liu J. et al., Pharmacological research 2016, 111:303-315. Briefly, untreated rats were sacrificed and after laparotomy, about 50 ml cold sterile Hank's balanced salt solution (HBSS) was used to lavage the peritoneal cavity at twice, and then the peritoneal lavage fluid was collected and centrifuged at 1500 rpm for 10 min. The cell pellets was suspended at a density 1.5×10^6 cells/ml in pre-hearted DMEM medium with 10% heat-inactivated FBS, penicillin G (100 units/ml), streptomycin ([…]), and L-glutamine (2 mM), followed by seeding in 6-well plates at a density of 4.5×10^6 cells and incubation for 2 h. Then the medium were discarded to remove the non-adherent cells. The adherent cells were further washed for two times with pre-heated DMEM medium to remove floating cells. Next, cells were pre-treated with various concentration of SIN for 1 h, followed by stimulation with LPS (1 μg/ml).
RAW264.7 cells and rat peritoneal macrophages were seeded in a 96-well plate at density of 1.4×10^4 and 1.5×10^5 cells, respectively. […] The optical density was measured at 570 nm against a reference wavelength of 650 nm using a microplate UV/VIS spectrophotometer (Tecan, Mannedorf, Switzerland). […]

p65 = assay: Nuclear translocation of p65 in LPS-stimulated rat peritoneal macrophages (immunofluorescence, western blotting); format: cell-based; details: 640 μM SIN 1 h, LPS 30 min
Experimental: Whole-cell and nuclear proteins were obtained using RIPA lysis buffer (CST, Boston, Mass., USA) and Nuclear and Cytoplasmic Extraction Reagents kit from Thermo Scientific (Asheville, N.C., USA), respectively. For immunoblotting, proteins from whole-cell, cytoplasm, nuclear, and microsomal fractions were separated on SDS-PAGE, then transferred onto a nitrocellulose membrane from GE Healthcare Life Sciences (Buckinghamshire, UK), and incubated with 5% skimmed milk at room temperature for 1 h. Membranes were incubated with the primary antibodies including cPLA2, p-cPLA2, COX-1 and p65 (all dilutions 1:1000), and COX-2 (dilution 1:500) from Cell Signaling Technology (Boston, Mass., USA); and mPGES-1 (dilution 1:200) from Cayman Chemical (Ann Arbor, Mich., USA); and β-actin (dilution 1:1000) from Santa Cruz Biotechnology (Santa Cruz, Calif., USA); and TBP (dilution 1:200) was from Abcam (Cambridge, UK) at 4° C. overnight and the band was visualized by incubating the anti-rabbit or anti-mouse secondary antibodies (dilution 1:10,000) from Li-COR (Lincoln, Nebr., USA) at room temperature for 1 h. The levels of protein expression were measured using Odyssey v3.0 software from Li-COR (Lincoln, Nebr., USA).
RAW 264.7 cells were seeded on glass coverslip at a density 2.0×10^5 cells/well in 6-well plates and incubated for 24 h. […]

NF-κB = assay: EMSA for NF-κB DNA binding activity in LPS-stimulated rat peritoneal macrophages; format: cell-based; details: LPS-induced, nuclear extract
Experimental: Nuclear extract proteins (10 μg) for the assay of the DNA binding activity of NF-κB were tested with a biotin-labeled oligonucleotide bio-NF-κB probe according to manufacturer's instructions of EMSA kit (Viagene Biotech).

For `COC1=C[C@@H]2[C@@H]3Cc4ccc(OC)c(O)c4[C@]2(CCN3C)CC1=O` [SIN, sinomenine], the mPGES-1 protein expression (mPGES-1) was “significantly and dose-dependently inhibited”, the “paw edema (percentage of increase in paw volume)” value ([1]; at 2, 3 and 4 h) was “successfully reduced paw edema in a dose dependent manner” and the “paw edema (percentage of increase in paw volume)” value ([1]; at 1 h) was “no effects”. For the same molecule, the “level of PGD2” value (PGD2) was “no significant influence”, the “nuclear translocation of p65” value (p65) was “does not produce observable inhibitory effects” and the “NF-κB DNA binding activity (EMSA)” value (NF-κB) was “capable of suppressing”.
